Test results as given in US11466066B2, “Variants of human BMP7 protein” (ELI LILLY AND COMPANY, priority 2017, dated 2022).

Columns and labels:
[1] = test system: DLD1 C5 tumor xenografts; assay: DLD1 C5 mouse xenograft tumor model; format: in vivo; settings: saline-treated, then irinotecan treated animals (20 mg/kg, M and Th)
Protocol: Female athymic nude mice age 6- to 7-weeks old are available commercially, including from Harlan Laboratories (Indianapolis, Ind.). The mice are allowed to acclimate for one week and fed ad libitum on a normal low fat (4.5%) diet, which may be continued for the duration of the study. Tumor cells are available for purchase from ATCC and may be cultured in cell culture media such as RPMI 1640 (Life Technologies) with L-glutamine, 25 mM HEPES supplemented with 10% FBS and 1 mM Na Pyruvate. Cells may be detached, washed with serum free medium and then resuspended at a final concentration of 50×10^6 cells/mL in serum free RPMI 1640. Tumor cells, approximately 5×106 may be injected subcutaneously in the rear flank of subject mice in a 1:1 mixture of serum free growth medium and Matrigel (Becton Dickinson, Bedford, Mass.). Tumor and body weight measurements may be performed twice weekly. Prior to treatment, mice can be randomized based on tumor size using a randomization algorithm. Treatments may be started when the average tumor volume reaches 100 mm3. […]
All test or control proteins are prepared in phosphate Buffered Saline (PBS) prior to dose. Tumor size may be determined by caliper measurements. […] Log volume data can be analyzed with two-way repeated measures ANOVA by time and treatment using SAS PROC MIXED software (SAS Institutes Inc, Cary, N.C.). […]

[2] = test system: ADSC/ECFC co-culture stimulated with EGF; assay: EGF-driven cord formation; format: cell-based; settings: 100 nM; 10 ng/ml EGF; 96 hours
From the text: (§1) An in vitro endothelial cord formation assay, a surrogate of angiogenesis, may be used to investigate the role of human BMP7 proteins on various growth factor established cords including, but not limited to, VEGF, basic FGF, and EGF established cords. Endothelial cord forming cells (ECFCs; passage 4-10 suitable for cord formation) may be cultured in EGM-2 MV (Lona) media containing a final concentration of 10% FBS and passaged onto type 1 collagen (fibrillar) coated flasks prior to seeding into the cord formation assay in vitro. […]
(§2) An ADSC/ECFC co-culture was unstimulated (basal) or stimulated with 10 ng/ml EGF and treated simultaneously with PBS or 100 ng/ml human pro-BMP7 variant F9 or 100 nM sunitinib for 96 hours prior to immunohistochemistry for CD31 (green), α-smooth muscle actin (red), and Hoechst 33342 to stain all nuclei (blue). Resulting CD31-positive endothelial cords were visualized and quantitated using high content imaging. […]

[3] = test system: ADSC/ECFC co-culture stimulated with bFGF; assay: FGF-driven cord formation; format: cell-based; settings: 100 nM; 10 ng/ml bFGF; 96 hours
From the text: as §1
as §2, with “bFGF” for “EGF”

[4] = test system: ADSC/ECFC co-culture stimulated with VEGF; assay: VEGF-driven cord formation; format: cell-based; settings: 100 nM; 10 ng/ml VEGF; 96 hours
From the text: as §1
as §2, with “VEGF” for “EGF”

[5] = test system: 3T3-L1 fibroblasts; assay: Alkaline phosphatase stimulation in 3T3-L1 cells; format: cell-based; settings: 1 μg/ml pro-BMP7, 1 μM ATRA, 48 hours
Protocol: (§3) 3T3-L1 fibroblasts and MFc7 mouse renal myofibroblasts may be grown essentially as described in Example 2 above. After 48 hours the cells may be washed with PBS prior to the addition of either DMEM/2% dialyzed FBS or OPTI-MEM/2% dialyzed FBS medium containing control vehicle, 1 μg/ml human proBMP7 protein, 1 μM ATRA or a combination of both human BMP7 protein (1 μg/ml) and ATRA (1 μM) may be added for 48 hours. After treatment the cells may be rinsed with PBS and stored at −80° C. for approximately 20 minutes. The cells may be thawed at 37° C. for 30 minutes and 100 μl of PNPP may be added to every well. The plate may be incubated at 37° C. for 1 hour. The absorbance at 405 nm may be read on a plate reader.

[6] = test system: Ki67; assay: Ki67 expression in GBM cells; format: cell-based, human; settings: ATRA 1 μg/ml, F9 100 ng/mL
Protocol: (§4) Glioblastoma multiforme stem cells (GBMs) may be obtained from patients with primitive brain tumors undergoing complete or partial surgical resection. These cells may be maintained as neurospheres in defined media with 3.34 g/L of DMEM and 2.66 g/L F12 reconstituted in sterile distilled water and containing 1% glucose, 0.12% sodium bicarbonate, 5 mM hepes, 2 mM L-glutamine, 4 mg/L heparin, 10 ng/mL bFGF, 20 ng/mL EGF, 0.4% BSA, 100 μg/mL apotransferrin, 25 μg/mL insulin, 60 uM putrescine, 30 nM sodium selenite, and 20 nM progesterone. Cells may be cultured at 37° C. in 5% CO2. Cells may be plated by enzymatically dispersing spheres into single cells with a 2-5 minute incubation at 37° C. with TrypLE™ Express cell dissociation enzyme. The enzyme may be quenched with Dulbecco's Phosphate Buffered Saline (DPBS) containing Ca+ and Mg+. Then the cells may centrifuged to remove TrypLE and DPBS and resuspended as single cells in defined media and counted by a Coulter Z2 Cell and Particle counter.
(§5) Single GBM cells may be plated in defined media at 2×10^6 cells/15 mL/T75 flask for high content imaging or 5×10^5 cells/2 mL/well in 6-well plates for light microscopy. Cells may be treated with 0.01% DMSO, 1 μg/mL ATRA, 100 ng/mL of a human BMP7 protein variant of the present invention (e.g., human BMP7 protein variant F9 (SEQ ID NO: 8)), or a combination of 1 μg/mL ATRA and 100 ng/mL human BMP7 protein variant of the present invention. For light microscopy imaging of the effect of control BMPs (BMP2 and BMP4), cells may be plated as above in 6-well dishes and treated with 0.01% DMSO, 1 μg/mL ATRA, 100 ng/mL BMP2, 50 ng/mL BMP4, or a combination of BMPs at the same concentrations plus 1 μg/mL ATRA. Example images may be captured at 3, 7, and 30 days post-treatment on a Leica DMIRM inverted microscope using a 20× objective, for example. For growth longer than 7 days, media and treatment may be changed approximately every 10 days beginning at day 10. […]

[7] = test system: MFc7 mouse renal myofibroblasts; assay: Alkaline phosphatase stimulation in MFc7 cells; format: cell-based; settings: 1 μg/ml pro-BMP7, 1 μM ATRA, 48 hours
Protocol: as §3

[8] = test system: SOX2; assay: SOX2 expression in GBM cells; format: cell-based, human; settings: ATRA 1 μg/ml, F9 100 ng/mL
Protocol: as §4, §5

## CCc1c2c(nc3ccc(OC(=O)N4CCC(N5CCCCC5)CC4)cc13)-c1cc3c(c(=O)n1C2)COC(=O)[C@]3(O)CC [irinotecan, reference compound]
[1]
  tumor response: tumor growth

## CCN(CC)CCNC(=O)c1c(C)[nH]c(/C=C2\C(=O)Nc3ccc(F)cc32)c1C [sunitinib, reference compound]
[2]
  Connected Tube Area - EGF (% PBS): 9.89 ± 8.059%
[3]
  Connected Tube Area - FGF (% PBS): 43.01 ± 18.28%
[4]
  Connected Tube Area - VEGF (% PBS): 26.14 ± 9.88%

## CC1=C(/C=C/C(C)=C/C=C/C(C)=C/C(=O)O)C(C)(C)CCC1 [ATRA, All-trans retinoic acid, reference compound]
[5]
  fold change in alkaline phosphatase stimulation relative to control vehicle treated cells: 2.9 fold
[6]; GBM clone CL-1, Day 3
  Ki67 percent responders normalized to vehicle control: 99%
[6]; GBM clone CL-61, Day 0
  Ki67 percent responders normalized to vehicle control: 83%
[6]; GBM clone Cl-1, Day 25
  Ki67 percent responders normalized to vehicle control: 101%
[7]
  fold change in alkaline phosphatase stimulation relative to control vehicle treated cells: 8 fold
[8]; GBM clone CL-1, Day 3
  SOX2 percent responders normalized to vehicle control: 97%
[8]; GBM clone CL-61, Day 0
  SOX2 percent responders normalized to vehicle control: 89%
[8]; GBM clone Cl-1, Day 25
  SOX2 percent responders normalized to vehicle control: 97%
